Measurements reported in patent US20140336159A1, “METHODS FOR TREATING AND DIAGNOSING RESPIRATORY TRACT INFECTIONS” (PULMATRIX, INC., priority 2011, published 2014).

Columns and labels:
[1] = test system: LPS stimulated peritoneal macrophages; experiment: Cytokine secretion by LPS stimulated peritoneal macrophages; type: cell-based, mouse (C57BL/6)
From the text: Macrophages represent a key component of the innate immune system. Alveolar macrophages are thought to play a central role in disease pathogenesis by secreting pro-inflammatory cytokines and chemokines in the context of both chronic obstructive pulmonary disease (COPD) and cystic fibrosis (CF), two respiratory illnesses involving airway inflammation. It was hypothesized that given the prominent role of alveolar macrophages in LPS induced lung inflammation, it may be possible that Ca^2+-ion containing formulations directly influence the inflammatory response of the macrophage after LPS exposure. In order to test this hypothesis in-vitro, murine peritoneal macrophages were isolated. C57BL/6 female mice were anesthetized using isofluorane inhalant. […] To confirm macrophage phenotype, a cytospin preparation was performed. Cells were cultured in DMEM:F12 overnight. The following day the media was removed and the macrophages were exposed to media supplemented with varying concentrations of LPS (1 ng/ml to 1 microgram/ml), a dose range of supplemental calcium chloride (5 mM to 50 mM) as well as a dose range of calcium chloride in the presence of LPS for 2 hours. After 2 hours in culture the media was collected for analysis of inflammatory cytokines using LUMINEX® Multiplex immunoassays (Invitrogen/Life Technologies, Grand Island, N.Y.) and BIO-PLEX MANAGER™ software (Version 6) (Bio-Rad, Hercules, Calif.). Presto blue or trypan blue assays were used to determine cell viability. […] The media content for 3 representative inflammatory mediators (IL-6, KC and TNF-alpha) cultured under LPS free conditions (unstimulated) as well as cells exposed to 1 ng/ml LPS were analyzed.
(§1) To determine the effects of alternating the cation in the calcium chloride salt, LPS stimulated human or mouse macrophages were exposed to alternative divalent and monovalent cations, magnesium chloride and sodium chloride, as well as an alternative […] anion, calcium lactate. Normal human monocytes were differentiated into macrophage derived monocytes in culture for 7 days as described in Example 16, and perotineal derived mouse macrophages were described in Example 15. Following two hours of incubation with LPS (10 ng/ml) and the appropriate salt concentration, supernatants were collected for LUMINEX protein analysis of inflammatory cytokines.

[2] = test system: macrophages stimulated with S. pneumoniae; conditions: S. pneumoniae challenge, 0, 5, 10, 25 mM, 2 hours
Description: (§3) To assess the level of bacterial induced inflammation in isolated peritoneal murine macrophages, isolated cells were placed in cell culture media and allowed to adhere to 96 well plates overnight. […] Following two hours of incubation, supernatants were collected for LUMINEX analysis of KC and TNF alpha with the results shown in FIG. 19.

[3] = test system: macrophages stimulated with K. pneumoniae; conditions: 1×10^7 CFU/ml K. pneumoniae, 0, 5, 10, 25 mM, 2 hours
Description: as §3

[4] = test system: LPS stimulated peritoneal macrophages
Description: Following 2 hours of incubation, cells were lysed, RNA was isolated, and a cDNA reaction was performed. RNA was harvested using the QIAGEN (Germantown, Md.) RNeasy® Plus Mini kit according to the manufacturer's Animal Cell Protocol (2005). RNA concentration and purity was determined by spectrophotometry using NANODROP 1000 spectrophotometer (Thermo Fisher Scientific, Wilmington, Del.). The expression of KC, IL-6, and TNF alpha were assessed by quantitative PCR. RNA expression levels of selected genes were quantified using the delta/delta C(t) (ΔΔCt) method using the expression of 18S as an internal reference for each sample. RNA was quantified by a two-step procedure in which RNA was converted to cDNA by reverse transcription using the iSCRIPT cDNA Synthesis kit from Bio-Rad followed by quantitative PCR (qPCR) using iQ SYBR Green Supermix from Bio-Rad.
The following cDNA synthesis reaction conditions were used: […]
The following quantitative PCR reaction conditions were used: […]
Data were collected and analyzed using the (delta/delta) ΔΔCt method. […] The fold change was then determined by the equation: 2^−ΔΔCt. […]

TLR2/6 = TLR2/6 (Mus musculus, UniProt Q9EPW9+Q9QUN7); conditions: TLR 2/6 ligand; negative values indicate increased KC
Description: (§2) It was hypothesized that calcium likely alters the immune response to LPS and possibly other TLR receptors in alveolar macrophages. To test this hypothesis, primary macrophages were isolated from mice. Briefly, C57BL/6 female mice were anesthetized using isofluorane inhalant. Animals were injected i.p. with 1.5 ml thioglycollate. Three to four days post injection mice were euthanized using CO2 to harvest peritoneal macrophages. Under sterile conditions, the abdominal wall was exposed and the peritoneal cavity was injected with 7 ml of lavage media, which was immediately recovered back into the syringe and deposited into a 50 mL conical tube. The peritoneal cavity was opened and the residual lavage media was recovered. Cell suspensions were centrifuged at 1200 rpm (RT-6000) for 8-10 minutes. The supernatant was removed and cell pellets were resuspended in 1-2 ml lysis buffer, incubated at room temperature (RT) for 1-2 minutes, and resuspended in18-19 ml cell culture media (DMEM/F-12). Cells were again centrifuged, supernatants were removed, the cell pellets were pooled, washed once more in cell culture media, centrifuged, and resuspended in 10 ml cell culture media, and cells were counted using a hemocytometer. To confirm macrophage phenotype, a cytospin preparation was performed. Cells were cultured in DMEM:F12 overnight. Cells were then stimulated with agonists to TLR4 (LPS or LipidA), TLR1/2 (pam3CSK4), TLR2/6 (FLS-1), TLR2 (LT-SA), TLR3 (Poly I:C), TLR 5 (Flagellin), TLR7 (Gardiquimod or Loxoribine) and TLR9 (CPG-ODN) ligands with 0, 10 or 25 mM calcium chloride supplemented to the media.

TLR9 = TLR9 (Mus musculus, UniProt Q9EQU3); conditions: TLR 9 ligand; negative values indicate increased KC
TLR9, sequence (Q9EQU3 26-1032): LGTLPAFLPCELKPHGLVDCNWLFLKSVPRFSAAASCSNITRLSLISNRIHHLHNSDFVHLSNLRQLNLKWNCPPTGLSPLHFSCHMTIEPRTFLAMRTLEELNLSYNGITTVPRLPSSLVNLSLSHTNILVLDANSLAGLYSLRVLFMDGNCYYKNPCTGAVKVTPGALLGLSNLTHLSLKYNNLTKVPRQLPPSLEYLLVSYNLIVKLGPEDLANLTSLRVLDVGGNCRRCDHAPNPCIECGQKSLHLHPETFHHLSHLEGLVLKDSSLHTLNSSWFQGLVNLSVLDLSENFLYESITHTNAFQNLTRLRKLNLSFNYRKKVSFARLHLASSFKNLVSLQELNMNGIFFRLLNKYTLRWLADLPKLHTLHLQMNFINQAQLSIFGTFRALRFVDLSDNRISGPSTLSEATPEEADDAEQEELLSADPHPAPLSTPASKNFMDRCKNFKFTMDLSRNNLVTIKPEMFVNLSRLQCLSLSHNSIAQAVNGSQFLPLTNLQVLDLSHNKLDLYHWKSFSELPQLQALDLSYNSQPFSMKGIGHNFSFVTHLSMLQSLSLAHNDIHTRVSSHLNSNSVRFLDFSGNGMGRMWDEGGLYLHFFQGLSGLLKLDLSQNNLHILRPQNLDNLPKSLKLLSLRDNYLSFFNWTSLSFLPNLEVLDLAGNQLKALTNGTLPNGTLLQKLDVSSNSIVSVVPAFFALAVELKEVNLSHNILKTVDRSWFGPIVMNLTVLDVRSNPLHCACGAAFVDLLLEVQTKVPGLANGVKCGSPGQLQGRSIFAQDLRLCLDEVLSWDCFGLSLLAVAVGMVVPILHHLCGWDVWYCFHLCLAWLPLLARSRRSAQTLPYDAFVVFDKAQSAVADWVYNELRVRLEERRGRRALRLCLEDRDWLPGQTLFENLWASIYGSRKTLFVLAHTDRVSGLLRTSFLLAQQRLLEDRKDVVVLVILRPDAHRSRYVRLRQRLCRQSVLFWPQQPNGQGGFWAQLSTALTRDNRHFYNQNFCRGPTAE
Description: as §2

TLR2 = TLR2 (Mus musculus, UniProt Q9QUN7); conditions: TLR 2 ligand; negative values indicate increased KC
TLR2, sequence (Q9QUN7 25-784): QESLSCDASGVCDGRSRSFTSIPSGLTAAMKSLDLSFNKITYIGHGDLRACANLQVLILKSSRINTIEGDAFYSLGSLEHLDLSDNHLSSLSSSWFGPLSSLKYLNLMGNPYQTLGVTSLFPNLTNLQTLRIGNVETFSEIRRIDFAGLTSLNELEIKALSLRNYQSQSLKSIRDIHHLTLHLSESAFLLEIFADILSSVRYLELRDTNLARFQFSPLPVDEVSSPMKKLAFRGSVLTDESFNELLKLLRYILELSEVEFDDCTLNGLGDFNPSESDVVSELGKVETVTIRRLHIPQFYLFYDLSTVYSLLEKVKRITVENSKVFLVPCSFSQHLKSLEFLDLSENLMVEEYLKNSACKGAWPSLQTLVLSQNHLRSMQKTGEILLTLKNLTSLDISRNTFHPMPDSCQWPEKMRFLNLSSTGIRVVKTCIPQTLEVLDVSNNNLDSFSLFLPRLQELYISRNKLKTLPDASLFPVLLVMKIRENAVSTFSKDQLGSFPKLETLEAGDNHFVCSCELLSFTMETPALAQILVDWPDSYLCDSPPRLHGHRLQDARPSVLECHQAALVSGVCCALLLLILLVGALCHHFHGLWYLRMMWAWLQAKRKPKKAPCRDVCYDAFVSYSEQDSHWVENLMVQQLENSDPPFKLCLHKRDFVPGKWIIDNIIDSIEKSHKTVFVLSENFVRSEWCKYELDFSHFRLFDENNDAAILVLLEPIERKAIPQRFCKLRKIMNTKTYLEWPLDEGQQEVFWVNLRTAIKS
Description: as §2

TLR7 = TLR7 (Mus musculus, UniProt P58681); conditions: TLR 7 ligand; negative values indicate increased KC
TLR7, sequence (P58681 27-1050): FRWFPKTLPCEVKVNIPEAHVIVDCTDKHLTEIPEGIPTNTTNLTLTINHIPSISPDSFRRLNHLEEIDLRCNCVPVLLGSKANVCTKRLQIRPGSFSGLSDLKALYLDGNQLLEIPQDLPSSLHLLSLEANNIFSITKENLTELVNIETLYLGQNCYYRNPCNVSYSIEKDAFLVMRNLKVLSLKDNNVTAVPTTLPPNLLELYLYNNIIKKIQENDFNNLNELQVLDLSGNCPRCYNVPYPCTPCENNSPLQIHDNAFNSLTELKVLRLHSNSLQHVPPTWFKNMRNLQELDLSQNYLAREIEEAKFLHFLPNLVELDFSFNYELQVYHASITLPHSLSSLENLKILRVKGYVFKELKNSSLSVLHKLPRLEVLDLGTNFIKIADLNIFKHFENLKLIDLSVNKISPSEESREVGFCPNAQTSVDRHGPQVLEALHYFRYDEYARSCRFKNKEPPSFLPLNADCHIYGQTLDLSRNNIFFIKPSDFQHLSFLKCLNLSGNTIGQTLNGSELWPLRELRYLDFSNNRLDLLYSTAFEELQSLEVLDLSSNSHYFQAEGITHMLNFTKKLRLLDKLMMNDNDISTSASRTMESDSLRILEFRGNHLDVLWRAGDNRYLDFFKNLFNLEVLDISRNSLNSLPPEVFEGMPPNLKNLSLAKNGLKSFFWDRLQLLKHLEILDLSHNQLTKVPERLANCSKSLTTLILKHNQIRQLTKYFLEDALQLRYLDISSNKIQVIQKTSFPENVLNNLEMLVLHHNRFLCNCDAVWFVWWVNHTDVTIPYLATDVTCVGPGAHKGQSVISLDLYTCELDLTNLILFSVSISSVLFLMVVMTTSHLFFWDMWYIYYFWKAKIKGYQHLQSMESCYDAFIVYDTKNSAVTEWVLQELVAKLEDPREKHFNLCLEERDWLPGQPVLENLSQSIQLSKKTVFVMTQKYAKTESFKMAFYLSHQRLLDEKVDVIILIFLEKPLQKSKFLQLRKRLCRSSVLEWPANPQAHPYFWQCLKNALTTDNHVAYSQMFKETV
Description: as §2

TLR 5 = TLR 5 (Mus musculus, UniProt Q9JLF7); conditions: TLR 5 ligand; negative values indicate increased KC
TLR 5, sequence (Q9JLF7 27-859): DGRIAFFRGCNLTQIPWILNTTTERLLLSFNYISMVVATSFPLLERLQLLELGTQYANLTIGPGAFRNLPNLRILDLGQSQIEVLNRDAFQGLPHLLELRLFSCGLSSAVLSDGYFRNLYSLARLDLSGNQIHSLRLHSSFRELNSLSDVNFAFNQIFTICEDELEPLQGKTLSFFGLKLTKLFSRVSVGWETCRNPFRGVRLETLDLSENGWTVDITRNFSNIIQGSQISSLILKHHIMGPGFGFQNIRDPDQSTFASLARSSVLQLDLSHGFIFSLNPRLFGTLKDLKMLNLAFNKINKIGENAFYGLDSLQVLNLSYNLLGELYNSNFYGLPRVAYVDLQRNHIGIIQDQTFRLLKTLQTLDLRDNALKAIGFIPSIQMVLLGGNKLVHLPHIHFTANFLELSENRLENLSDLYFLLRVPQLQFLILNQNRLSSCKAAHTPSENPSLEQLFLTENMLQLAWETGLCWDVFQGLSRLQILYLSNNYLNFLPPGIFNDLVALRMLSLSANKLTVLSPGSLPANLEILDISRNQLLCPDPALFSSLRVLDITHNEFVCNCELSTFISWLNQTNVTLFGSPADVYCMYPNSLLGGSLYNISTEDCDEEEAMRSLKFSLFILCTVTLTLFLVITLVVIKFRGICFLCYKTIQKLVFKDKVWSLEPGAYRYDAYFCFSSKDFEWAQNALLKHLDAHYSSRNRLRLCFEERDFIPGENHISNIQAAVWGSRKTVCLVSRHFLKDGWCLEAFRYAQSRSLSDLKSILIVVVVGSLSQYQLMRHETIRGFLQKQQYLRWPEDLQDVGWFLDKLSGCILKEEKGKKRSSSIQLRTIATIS
Description: as §2

TLR3 = TLR3 (Mus musculus, UniProt Q99MB1); conditions: TLR 3 ligand; negative values indicate increased KC
TLR3, sequence (Q99MB1 26-905): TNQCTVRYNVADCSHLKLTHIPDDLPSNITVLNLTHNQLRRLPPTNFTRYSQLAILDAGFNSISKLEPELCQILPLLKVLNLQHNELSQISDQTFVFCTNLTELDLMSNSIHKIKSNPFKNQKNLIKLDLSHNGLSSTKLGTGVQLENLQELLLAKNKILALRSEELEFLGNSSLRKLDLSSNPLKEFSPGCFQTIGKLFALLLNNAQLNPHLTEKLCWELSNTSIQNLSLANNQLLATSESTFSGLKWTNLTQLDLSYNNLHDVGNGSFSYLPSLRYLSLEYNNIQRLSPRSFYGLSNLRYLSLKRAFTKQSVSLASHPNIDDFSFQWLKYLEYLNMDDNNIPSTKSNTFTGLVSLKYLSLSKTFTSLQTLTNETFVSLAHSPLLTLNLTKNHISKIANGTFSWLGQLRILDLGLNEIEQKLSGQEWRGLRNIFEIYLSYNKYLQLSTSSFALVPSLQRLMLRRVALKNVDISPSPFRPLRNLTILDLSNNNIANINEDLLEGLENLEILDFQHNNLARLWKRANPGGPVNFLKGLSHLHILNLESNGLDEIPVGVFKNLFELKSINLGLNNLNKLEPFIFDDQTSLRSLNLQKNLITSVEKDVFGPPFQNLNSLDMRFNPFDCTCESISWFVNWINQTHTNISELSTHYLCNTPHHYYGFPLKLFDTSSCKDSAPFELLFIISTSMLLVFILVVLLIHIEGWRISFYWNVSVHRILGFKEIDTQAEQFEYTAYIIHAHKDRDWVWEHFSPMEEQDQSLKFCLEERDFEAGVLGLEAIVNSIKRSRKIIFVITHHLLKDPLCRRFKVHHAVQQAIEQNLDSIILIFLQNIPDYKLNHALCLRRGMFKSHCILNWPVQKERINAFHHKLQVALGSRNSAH
Description: as §2

TLR4 = TLR4 (Mus musculus, UniProt Q9QUK6); conditions: TLR 4 ligand; negative values indicate increased KC
Description: as §2

TLR1/2 = TLR1/2 (Mus musculus, UniProt Q9EPQ1+Q9QUN7); conditions: TLR 1/2 ligand; negative values indicate increased KC
Description: as §2

human macrophages = experiment: Cytokine secretion by LPS stimulated human monocyte-derived macrophages (normal and COPD-derived); type: cell-based; conditions: 10 ng/ml LPS, 2 hours
Description: Normal and COPD-derived human monocytes were differentiated into macrophage derived monocytes in culture for 7 days. Cells were thawed following storage in liquid nitrogen, and then plated at 2.0-2.5×10^5 cells/well (in 0.2 ml per well) in IMDM cell culture media containing 10% human serum and human GM-CSF (50 ng/ml). On day 7, assays were performed on the cells, using media containing serum but no GM-CSF. Cells were stimulated with 10 ng/ml LPS, and exposed to calcium chloride concentrations of either 10 or 25 mM. Following two hours, supernatants were collected for LUMINEX analysis of IL-8, IL-6, TNF alpha and MIP-1 alpha (FIG. 17A), IL-8 only for COPD (FIG. 17B). […] Calcium chloride reduced LPS induced inflammation in normal and COPD-derived human monocyte-derived macrophages.
as §1

Q: With [Ca+2].[Cl-].[Cl-] [calcium chloride] as the molecule, how does the “protein secretion of KC, IL-6 and TNF alpha” value ([1]; 1 ng/ml LPS, 2 hours, 10, 25, 50 mM, compared to untreated (0) cells) read?
A: Its value is “significantly reduced”.

Q: And the cell viability ([1]; Presto blue or trypan blue assays)?
A: The cell viability was “generally did not affect cell viability”.

Q: And the “LPS induced inflammatory mediator secretion (KC, IL-6)” value ([1]; mouse macrophages, 10 ng/ml LPS, 2 hours, salts 0-50 mM)?
A: The value was “decreased”.

Q: What about the “inflammatory mediator release of unstimulated cells” value ([1]; no LPS, increasing calcium chloride content) of the same molecule?
A: Its value is “mild increase”.

Q: What about the “inflammatory mediator secretion (KC, TNF alpha)” value [2] of the same molecule?
A: Its value is “little effect”.

Q: And the “inflammatory mediator secretion (KC, TNF alpha)” value [3]?
A: The value was “dose-dependent decrease”.

Q: And the “gene expression of KC, IL-6 and TNFα” value ([4]; 1 ng/ml LPS, 2 hours, 10, 25, 50 mM, compared to untreated (0))?
A: Its value is “significantly reduced”.

Q: And the NRIP1 gene expression ([4]; LPS stimulated)?
A: The NRIP1 gene expression was “significantly reduced”.

Q: And the “% KC reduction at 10 mM calcium ion” value (TLR2/6)?
A: Its value is −25 ± 11%.

Q: And the “% KC reduction at 25 mM calcium ion” value (TLR2/6)?
A: The value was −51 ± 27%.

Q: And the “% KC reduction at 10 mM calcium ion” value (TLR9)?
A: The value was −55 ± 51%.

Q: And the “% KC reduction at 25 mM calcium ion” value (TLR9)?
A: The value was −144%.

Q: And the “% KC reduction at 10 mM calcium ion” value (TLR2)?
A: Its value is 46 ± 10%.

Q: And the “% KC reduction at 25 mM calcium ion” value (TLR2)?
A: The value was 85 ± 9%.

Q: What about the “% KC reduction at 10 mM calcium ion” value (TLR7) of the same molecule?
A: Its value is −10 ± 41%.

Q: What about the “% KC reduction at 25 mM calcium ion” value (TLR7) of the same molecule?
A: Its value is −20 ± 49%.

Q: And the “% KC reduction at 10 mM calcium ion” value (TLR 5)?
A: Its value is 54 ± 6%.

Q: And the “% KC reduction at 25 mM calcium ion” value (TLR 5)?
A: The value was 50 ± 2%.

Q: And the “% KC reduction at 10 mM calcium ion” value (TLR3)?
A: Its value is 81 ± 7%.

Q: What about the “% KC reduction at 25 mM calcium ion” value (TLR3) of the same molecule?
A: Its value is 76 ± 16%.

Q: And the “% KC reduction at 10 mM calcium ion” value (TLR4)?
A: Its value is 68 ± 15%.

Q: What about the “% KC reduction at 25 mM calcium ion” value (TLR4) of the same molecule?
A: The value was 75 ± 13%.

Q: And the “% KC reduction at 10 mM calcium ion” value (TLR1/2)?
A: The value was −1 ± 9%.

Q: And the “% KC reduction at 25 mM calcium ion” value (TLR1/2)?
A: Its value is −27 ± 58%.

Q: What about the “inflammatory cytokine secretion (IL-8, IL-6, TNF alpha, MIP-1 alpha; IL-8 only for COPD)” value (human macrophages; 25 mM, to near that of non-LPS challenged cells) of the same molecule?
A: The value was “significant decline”.

Q: What about the “LPS induced cytokine production (IL-8, IL-6)” value (human macrophages; human macrophages, salts 0-50 mM) of the same molecule?
A: Its value is “of lesser magnitude than calcium lactate but more potent than sodium chloride”.
